These results are taken from PubChem BioAssay (NCI).

Values joined by “and” are separate entries in the source; they are usually repeats but may differ in a detail not shown here. Equal values may be shown once.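 Cultured in 96-well plates, cells were exposed to test compound for 48 hours across five concentrations. GI50 = concentration required for 50% inhibition of growth. TGI: concentration producing complete growth inhibition.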

Some test systems named below: PC-3 prostate; NCI/ADR-RES ovarian; SK-MEL-28 melanoma; OVCAR-8 ovarian; TK-10 renal; SK-MEL-5 melanoma; HCT-116 colon; OVCAR-3 ovarian; MDA-MB-435; HL-60(TB) leukemia.
Holding throughout (test): NCI-60 cell line screen, 48 h

`Cc1cc(C)c([I+]c2c(C)cc(C)cc2C)c(C)c1`: the GI50 was 0.259 µM with PC-3 prostate; 6.54 µM in the assay with NCI/ADR-RES ovarian; 0.774 µM in the assay on SK-MEL-28 melanoma; 0.286 µM with OVCAR-8 ovarian; 0.712 µM with TK-10 renal; 0.201 µM with SK-MEL-5 melanoma. Also, the GI50 in the assay with HCT-116 colon was 0.348 µM; in the assay with OVCAR-3 ovarian it was 0.379 µM; in the assay on MDA-MB-435, 0.327 µM. Further, the TGI in the assay with PC-3 prostate worked out at 1.14 µM; in the assay on NCI/ADR-RES ovarian, 26.8 µM; in the assay with SK-MEL-28 melanoma it was 2.08 µM; in the assay on OVCAR-8 ovarian, 1.09 µM; in the assay with TK-10 renal, 2.06 µM; with SK-MEL-5 melanoma, 0.476 µM. Besides, the TGI with HCT-116 colon was found to be 1.35 µM; in the assay with OVCAR-3 ovarian it was 1.62 µM; in the assay on MDA-MB-435 it was 1.24 µM.

As to `CC1(C)N=C(N)N=C(N)N1c1cccc(CCCCc2ccc(Cl)c(S(=O)(=O)F)c2)c1`, the GI50 in the assay on HL-60(TB) leukemia was 0.563 µM; in the assay on NCI/ADR-RES ovarian, over 100 µM; in the assay with SK-MEL-28 melanoma, 7.67 µM; in the assay with OVCAR-8 ovarian, 9.28 µM; in the assay on TK-10 renal, 10.7 µM; in the assay with SK-MEL-5 melanoma it was 0.612 µM. The GI50 with HCT-116 colon is 0.457 µM; in the assay with OVCAR-3 ovarian, 5.58 µM; in the assay on MDA-MB-435, 0.445 µM. Further, the TGI is 12.1 µM in the assay on HL-60(TB) leukemia; over 100 µM in the assay with NCI/ADR-RES ovarian; 21.2 µM in the assay with SK-MEL-28 melanoma; over 100 µM with OVCAR-8 ovarian; 39.3 µM in the assay on TK-10 renal; 12.9 µM in the assay on SK-MEL-5 melanoma. For the same compound, the TGI in the assay with HCT-116 colon came out at 13.5 µM; with OVCAR-3 ovarian, 18.5 µM; with MDA-MB-435, 15.7 µM.

For the compound `C=C(C)[C@@H]1C/C=C(/COC(C)=O)CC[C@H]2O[C@@]2(C)CC/C=C(\C)CC1`, the GI50 in the assay with PC-3 prostate, in the assay on NCI/ADR-RES ovarian, with SK-MEL-28 melanoma, in the assay with OVCAR-8 ovarian, in the assay on TK-10 renal and with SK-MEL-5 melanoma was over 100 µM in each case. The GI50 was 38 µM with HCT-116 colon, over 100 µM in the assay on OVCAR-3 ovarian and over 100 µM in the assay on MDA-MB-435. Also, the TGI with PC-3 prostate, in the assay on NCI/ADR-RES ovarian, in the assay on SK-MEL-28 melanoma, in the assay with OVCAR-8 ovarian, with TK-10 renal and in the assay with SK-MEL-5 melanoma was over 100 µM in each case. Also, the TGI in the assay with HCT-116 colon, in the assay on OVCAR-3 ovarian and in the assay on MDA-MB-435 was over 100 µM throughout.

For `Oc1cccc2cccnc12`, the TGI is 35.4 µM and > 100 µM and > 32 µM in the assay on NCI/ADR-RES ovarian; over 100 µM in the assay with SK-MEL-28 melanoma; over 100 µM in the assay on OVCAR-8 ovarian; over 100 µM with TK-10 renal; 36.7 µM and 45.2 µM and > 71.7 µM in the assay with SK-MEL-5 melanoma; 23.1 µM and > 100 µM in the assay on HCT-116 colon. The TGI with MDA-MB-435 is over 100 µM. Besides, the GI50 in the assay on SK-MEL-28 melanoma is 16.9 µM and > 100 µM and > 55.5 µM; in the assay with OVCAR-8 ovarian, 3.39 µM and 14.6 µM and 2.67 µM; with TK-10 renal, 51.5 µM and 8.42 µM and 47.7 µM; in the assay on HCT-116 colon, 1.06 µM and 3.42 µM and 1.46 µM; with MDA-MB-435, 13.3 µM and 21.5 µM and 5.94 µM.

For the compound `COc1cccc(C2SC(C)C(=O)N2NC(=O)C(O)c2ccccc2)c1` (stereo not given), the GI50 in the assay with PC-3 prostate, in the assay on SK-MEL-28 melanoma, with OVCAR-8 ovarian, in the assay with TK-10 renal, in the assay with SK-MEL-5 melanoma and in the assay with HCT-116 colon was over 100 µM throughout. Also, the GI50 in the assay with OVCAR-3 ovarian and in the assay with MDA-MB-435 was over 100 µM each time. In addition, the TGI with PC-3 prostate, in the assay with SK-MEL-28 melanoma, in the assay on OVCAR-8 ovarian, in the assay with TK-10 renal, with SK-MEL-5 melanoma and in the assay on HCT-116 colon was over 100 µM in each case. Besides, the TGI in the assay with OVCAR-3 ovarian and in the assay on MDA-MB-435 was over 100 µM each time.

Turning to `CC1=NC(C)=C(/C(C)=N/NC(=O)c2ccccc2O)C(C)/C1=C(/C)NNC(=O)c1ccccc1O` (stereo not given), the TGI in the assay with HL-60(TB) leukemia was 22.4 µM; with SK-MEL-28 melanoma it was over 100 µM; in the assay with OVCAR-8 ovarian, 50.5 µM; with TK-10 renal it was 98.8 µM; with SK-MEL-5 melanoma it was 38.9 µM; in the assay on HCT-116 colon, 48.3 µM. In the assay on OVCAR-3 ovarian, this compound showed a TGI of 66.7 µM.

In the case of `C=C1C2CC(OC(C)=O)C3(C)C(c4ccoc4)OC(=O)[C@@H](O)[C@]13OC1C[C@H](OC(C)=O)C(C)(C)[C@H](C(O)C(=O)OC)[C@]12C` (stereo not given in full), the TGI in the assay with HL-60(TB) leukemia, with SK-MEL-28 melanoma, in the assay with OVCAR-8 ovarian, in the assay with TK-10 renal, in the assay with SK-MEL-5 melanoma and in the assay on HCT-116 colon was over 100 µM throughout. In the assay with OVCAR-3 ovarian, this compound gave a TGI of over 100 µM.

On to `Cc1cccc2c(=O)c3c(sc12)c(NCCCN)nc1ccccc13`, for which the GI50 was 1.37 µM in the assay with PC-3 prostate; 1.71 µM with HL-60(TB) leukemia; 1.89 µM in the assay on SK-MEL-28 melanoma; 1.74 µM in the assay with SK-MEL-5 melanoma; 1.48 µM with HCT-116 colon; 1.68 µM in the assay on OVCAR-3 ovarian. Moreover, in the assay with MDA-MB-435, the GI50 was 1.69 µM. Further, the TGI amounted to 3.04 µM with PC-3 prostate; 3.34 µM in the assay on HL-60(TB) leukemia; 3.41 µM in the assay on SK-MEL-28 melanoma; 3.18 µM in the assay with SK-MEL-5 melanoma; 2.91 µM in the assay on HCT-116 colon; 3.16 µM in the assay on OVCAR-3 ovarian. The same compound had a TGI in the assay with MDA-MB-435 of 3.17 µM.

On to `COc1cc(/C=C/C(=O)c2ccccc2O)ccc1OCCCOc1cc2c(cc1OC)C(=O)N1CCC[C@H]1C=N2`, for which the GI50 was 0.0541 µM in the assay with PC-3 prostate; 0.0515 µM in the assay on HL-60(TB) leukemia; 0.345 µM in the assay with NCI/ADR-RES ovarian; 0.0476 µM with SK-MEL-28 melanoma; 0.0759 µM with OVCAR-8 ovarian; 0.0794 µM with TK-10 renal. For the same compound, the GI50 with SK-MEL-5 melanoma is 0.0577 µM; in the assay on HCT-116 colon, 0.0332 µM; with OVCAR-3 ovarian it was 0.0289 µM. Also, the TGI in the assay with PC-3 prostate is 7.51 µM; in the assay with HL-60(TB) leukemia it was 0.161 µM; with NCI/ADR-RES ovarian, 16.8 µM; in the assay with SK-MEL-28 melanoma it was 0.109 µM; in the assay on OVCAR-8 ovarian, 13.5 µM; in the assay on TK-10 renal it was 1.62 µM. Besides, the TGI in the assay with SK-MEL-5 melanoma was found to be 0.167 µM; with HCT-116 colon, 1.57 µM; with OVCAR-3 ovarian it was 0.124 µM.

With `C/C(=N\NC(=O)c1ccccc1O)c1c(O)cc(C)oc1=O`, the TGI in the assay on HL-60(TB) leukemia, in the assay with SK-MEL-28 melanoma, in the assay on OVCAR-8 ovarian, with TK-10 renal, with SK-MEL-5 melanoma and in the assay on HCT-116 colon was over 100 µM in each case. For the same compound, the TGI with OVCAR-3 ovarian was over 100 µM.
